Results: patent US10722496B2, “2-iminobiotin for use in the treatment of brain cell injury” (Neurophyxia B.V., priority 2015, dated 2020)
Values joined by “and” are separate entries in the source; they are usually repeats but may differ in a detail not shown here. Equal values may be shown once.

Assay: Pharmacokinetics in adults after out of hospital cardiac arrest (Example 5B)
Assay type: in vivo, human
Design: Obs. AUCinf (based on weight): unit not given here
Protocol: Namely, a first cohort of eight patients received 2-IB in a dose of 0.055 mg/kg/dose every 4 hours iv, 6 times in total (part A; i.e., 0.33 mg/kg/day).
The eight adults that suffered an out of hospital cardiac arrest were treated with 2-IB as a 15-minute IV infusion every 4 hours for 6 administrations. Target temperature management was used to maintain body temperature of 36.0 (median).
Models were generated in order to determine the impact of dose adjustments and variability of AUC.
An exploratory covariate analysis was performed looking at body weight, age, eGFR, SeCre, and Core temperature.

[1] = Table 4, basic model, Max of 8 patients
[2] = Table 4, basic model, Mean of 8 patients
[3] = Table 4, basic model, Median of 8 patients
[4] = Table 4, basic model, Min of 8 patients
[5] = Table 4, basic model, OHCA patients, 0.055 mg/kg/dose iv every 4 hours x6, individual patient (ID 1-8), 0.055 mg/kg
[6] = Table 5, covariate model with Crea0, Max of 8 patients
[7] = Table 5, covariate model with Crea0, Mean of 8 patients
[8] = Table 5, covariate model with Crea0, Median of 8 patients
[9] = Table 5, covariate model with Crea0, Min of 8 patients
[10] = Table 5, covariate model with Crea0, OHCA patients, 0.055 mg/kg/dose iv every 4 hours x6, individual patient (ID 1-8), 0.055 mg/kg
[11] = Table 9, eGFR0 (eGFR at baseline) model, OHCA patients, 0.055 mg/kg/dose iv every 4 hours x6, individual patient (ID 1-8), 0.055 mg/kg
[12] = Table 9, eGFR0 model, Max of 8 patients
[13] = Table 9, eGFR0 model, Mean of 8 patients
[14] = Table 9, eGFR0 model, Median of 8 patients
[15] = Table 9, eGFR0 model, Min of 8 patients
[16] = exploratory covariate analysis, 8 OHCA patients

For `N=C1N[C@H]2[C@H](CS[C@H]2CCCCC(=O)O)N1` [2-IB, 2-iminobiotin], which AUC cumul. [1] is on record?
The AUC cumul. was 5613 ng·h/mL.

What about the AUCinf [1] of the same compound?
Its AUCinf is 1242 ng·h/mL.

And the CL [1]?
Its CL is 22.3 L/h.

And the V [1]?
Its V is 33.6 L.

What about the VSS [1] of the same compound?
Its VSS is 43.5 L.

And the thalf [1]?
Its thalf is 6.3 h.

And the AUC cumul. [2]?
Its AUC cumul. is 3238 ng·h/mL.

What about the AUCinf [2] of the same compound?
The AUCinf was 625 ng·h/mL.

And the CL [2]?
Its CL is 11.7 L/h.

And the V [2]?
The V was 14.9 L.

What about the VSS [2] of the same compound?
Its VSS is 24.9 L.

And the thalf [2]?
The thalf was 2.5 h.

What about the AUC cumul. [3] of the same compound?
The AUC cumul. was 2777 ng·h/mL.

And the AUCinf [3]?
Its AUCinf is 478 ng·h/mL.

And the CL [3]?
Its CL is 9.5 L/h.

What about the V [3] of the same compound?
Its V is 12.7 L.

And the VSS [3]?
Its VSS is 22.7 L.

What about the thalf [3] of the same compound?
The thalf was 1.6 h.

And the AUC cumul. [4]?
Its AUC cumul. is 1236 ng·h/mL.

And the AUCinf [4]?
The AUCinf was 209 ng·h/mL.

And the CL [4]?
The CL was 4.9 L/h.

What about the V [4] of the same compound?
Its V is 5.0 L.

What about the VSS [4] of the same compound?
The VSS was 14.9 L.

And the thalf [4]?
Its thalf is 1.0 h.

And the AUC cumul. [5]?
Its AUC cumul. is 5613 ng·h/mL and 4680 ng·h/mL and 3521 ng·h/mL and 5386 ng·h/mL and 1858 ng·h/mL and 2032 ng·h/mL and 1236 ng·h/mL and 1577 ng·h/mL.

What about the AUCinf [5] of the same compound?
Its AUCinf is 1152 ng·h/mL and 860 ng·h/mL and 612 ng·h/mL and 1242 ng·h/mL and 315 ng·h/mL and 343 ng·h/mL and 209 ng·h/mL and 265 ng·h/mL.

And the CL [5]?
Its CL is 6.4 L/h and 5.8 L/h and 7.6 L/h and 4.9 L/h and 11.4 L/h and 18.3 L/h and 22.3 L/h and 16.7 L/h.

And the V [5]?
The V was 24.3 L and 11.3 L and 7.3 L and 33.6 L and 5.0 L (2×) and 14.1 L and 19.0 L.

What about the VSS [5] of the same compound?
The VSS was 34.3 L and 21.3 L and 17.3 L and 43.5 L and 15.0 L and 24.1 L and 28.9 L and 14.9 L.

And the thalf [5]?
The thalf was 3.9 h and 2.8 h and 1.9 h and 6.3 h and 1.3 h and 1.2 h (2×) and 1.0 h.

And the AUC cumul. [6]?
Its AUC cumul. is 5934 ng·h/mL.

And the AUCinf [6]?
Its AUCinf is 1235 ng·h/mL.

What about the CL [6] of the same compound?
Its CL is 17.9 L/h.

What about the V [6] of the same compound?
The V was 34.1 L.

And the VSS [6]?
Its VSS is 43.4 L.

What about the thalf [6] of the same compound?
The thalf was 5.4 h.

And the AUC cumul. [7]?
Its AUC cumul. is 3226 ng·h/mL.

And the AUCinf [7]?
The AUCinf was 614 ng·h/mL.

What about the CL [7] of the same compound?
The CL was 11.0 L/h.

What about the V [7] of the same compound?
The V was 15.4 L.

What about the VSS [7] of the same compound?
The VSS was 24.7 L.

And the thalf [7]?
Its thalf is 2.3 h.

And the AUC cumul. [8]?
Its AUC cumul. is 2405 ng·h/mL.

What about the AUCinf [8] of the same compound?
Its AUCinf is 408 ng·h/mL.

What about the CL [8] of the same compound?
Its CL is 10.2 L/h.

And the V [8]?
Its V is 13.2 L.

And the VSS [8]?
Its VSS is 22.5 L.

And the thalf [8]?
The thalf was 1.5 h.

And the AUC cumul. [9]?
Its AUC cumul. is 1615 ng·h/mL.

And the AUCinf [9]?
The AUCinf was 271 ng·h/mL.

And the CL [9]?
Its CL is 5.6 L/h.

What about the V [9] of the same compound?
Its V is 4.7 L.

What about the VSS [9] of the same compound?
The VSS was 14.0 L.

What about the thalf [9] of the same compound?
The thalf was 1.0 h.

What about the AUC cumul. [10] of the same compound?
The AUC cumul. was 5934 ng·h/mL and 4803 ng·h/mL and 2726 ng·h/mL and 4886 ng·h/mL and 2063 ng·h/mL and 2085 ng·h/mL and 1694 ng·h/mL and 1615 ng·h/mL.

What about the AUCinf [10] of the same compound?
Its AUCinf is 1235 ng·h/mL and 884 ng·h/mL and 464 ng·h/mL and 1063 ng·h/mL and 349 ng·h/mL and 352 ng·h/mL and 291 ng·h/mL and 271 ng·h/mL.

And the CL [10]?
Its CL is 6.0 L/h and 5.6 L/h and 10.0 L/h and 5.7 L/h and 10.3 L/h and 17.9 L/h and 16.0 L/h and 16.3 L/h.

What about the V [10] of the same compound?
Its V is 24.5 L and 11.8 L and 7.2 L and 34.1 L and 4.7 L and 14.5 L and 21.3 L and 5.1 L.

What about the VSS [10] of the same compound?
The VSS was 33.8 L and 21.1 L and 16.5 L and 43.4 L and 14.0 L and 23.8 L and 30.6 L and 14.4 L.

What about the thalf [10] of the same compound?
The thalf was 4.1 h and 2.8 h and 1.4 h and 5.4 h and 1.3 h and 1.2 h and 1.5 h and 1.0 h.

And the “Obs. AUCinf (based on weight)” value (Table 8, covariate model with Crea0, individual patient (ID 1-8))?
The value was 291 and 271 and 1235 and 884 and 464 and 1063 and 349 and 352.

What about the AUC [11] of the same compound?
Its AUC is 5905 ng·h/mL and 4813 ng·h/mL and 2712 ng·h/mL and 4896 ng·h/mL and 2060 ng·h/mL and 2061 ng·h/mL and 1705 ng·h/mL and 1636 ng·h/mL.

What about the AUCinf [11] of the same compound?
Its AUCinf is 1227 ng·h/mL and 886 ng·h/mL and 462 ng·h/mL and 1067 ng·h/mL and 349 ng·h/mL and 348 ng·h/mL and 292 ng·h/mL and 274 ng·h/mL.

And the CL [11]?
Its CL is 6.0 L/h and 5.6 L/h and 10.1 L/h and 5.7 L/h and 10.3 L/h and 18.1 L/h and 15.9 L/h and 16.1 L/h.

And the V [11]?
Its V is 24.5 L and 11.8 L and 7.3 L and 34.2 L and 4.7 L and 14.8 L and 21.1 L and 5.0 L.

What about the VSS [11] of the same compound?
The VSS was 33.8 L and 21.1 L and 16.5 L and 43.5 L and 14.0 L and 24.1 L and 30.4 L and 14.3 L.

And the thalf [11]?
The thalf was 4.1 h and 2.8 h and 1.4 h and 5.4 h and 1.3 h and 1.2 h and 1.5 h and 1.0 h.

And the AUC [12]?
The AUC was 5905 ng·h/mL.

What about the AUCinf [12] of the same compound?
Its AUCinf is 1227 ng·h/mL.

And the CL [12]?
The CL was 18.1 L/h.

And the V [12]?
Its V is 34.2 L.

And the VSS [12]?
The VSS was 43.5 L.

What about the thalf [12] of the same compound?
The thalf was 5.4 h.

What about the AUC [13] of the same compound?
Its AUC is 3224 ng·h/mL.

What about the AUCinf [13] of the same compound?
The AUCinf was 613 ng·h/mL.

What about the CL [13] of the same compound?
Its CL is 11.0 L/h.

What about the V [13] of the same compound?
The V was 15.4 L.

And the VSS [13]?
The VSS was 24.7 L.

And the thalf [13]?
Its thalf is 2.3 h.

And the AUC [14]?
Its AUC is 2387 ng·h/mL.

And the AUCinf [14]?
The AUCinf was 405 ng·h/mL.

What about the CL [14] of the same compound?
Its CL is 10.2 L/h.

What about the V [14] of the same compound?
The V was 13.3 L.

And the VSS [14]?
The VSS was 22.6 L.

And the thalf [14]?
Its thalf is 1.5 h.

And the AUC [15]?
Its AUC is 1636 ng·h/mL.

What about the AUCinf [15] of the same compound?
Its AUCinf is 274 ng·h/mL.

What about the CL [15] of the same compound?
The CL was 5.6 L/h.

What about the V [15] of the same compound?
The V was 4.7 L.

What about the VSS [15] of the same compound?
The VSS was 14.0 L.

And the thalf [15]?
Its thalf is 1.0 h.

What about the “Obs. AUCinf (based on weight)” value (Table 10, covariate model with eGFR, individual patient (ID 1-8)) of the same compound?
Its value is 292 and 274 and 1227 and 886 and 462 and 1067 and 349 and 348.

What about the “Obs. AUCinf (based on weight)” value (Table 10, Max of 8 patients) of the same compound?
The value was 1227.

And the “Obs. AUCinf (based on weight)” value (Table 10, Mean of 8 patients)?
The value was 613.

What about the “Obs. AUCinf (based on weight)” value (Table 10, Median of 8 patients) of the same compound?
Its value is 405.

And the “Obs. AUCinf (based on weight)” value (Table 10, Min of 8 patients)?
Its value is 274.

And the “influence of body weight on clearance” value [16]?
Its value is “not influenced by body weight”.

And the “influence of body weight on volume” value [16]?
The value was “influenced by body weight”.

What about the “influence of renal function on clearance” value (renal function as Serum Creatinine or eGFR before treatment, exploratory covariate analysis) of the same compound?
Its value is “appears to be influenced be renal function”.
